Entries after “also recorded” stand apart in the source; their conditions may differ.
How the values were obtained:
[1] = system: CTCs from patients with castration-sensitive prostate cancer; test: AR signaling phenotypes in CTCs from patients with castration-sensitive metastatic prostate cancer before and after ADT (HBCTC-Chip); type: in vivo, human; conditions: for Change of CTC AR signaling phenotype after ADT: treatment-naive castration-sensitive metastatic prostate cancer patients with detectable CTCs
Method: (§1) Patients and Clinical Specimens Patients with metastatic prostate cancer receiving treatment at the Massachusetts General Hospital (MGH) were recruited according to an institutional review board (IRB) approved protocol. A total of 21 prostate cancer patients donated 10-20 mL of blood on one or more occasions for CTC analysis. A total of 21 male patients with no known diagnosis of cancer were recruited during routine visits to the MGH outpatient internal medicine clinic according to a separate IRB approved protocol. CTC capture using the ^HBCTC-Chip was performed as described (Stott S L, et al. Proc Natl Acad Sci USA 2010; 107: 18392-7), with anti-EpCAM mediated capture of cells, followed by combined staining with anti-PSA, anti-PSMA, and anti-CD45 antibodies (described in detail below).
HBCTC-Chip Blood Processing All specimens were collected into Vacutainer (Becton-Dickson) tubes containing the anticoagulant EDTA and were processed through the ^HBCTC-Chip within 6 hours of blood draw. Samples were run on the previously described microfluidic processing machine (Stott S L, et al. Proc Natl Acad Sci USA 2010; 107: 18392-7). Briefly, a 5 mL aliquot of blood was placed in an airtight conical tube on a rocker assembly, and 2-4 mL of blood were pneumatically driven through the chip at a flow rate of 1-1.5 mL/hour. […]
(§2) Immunofluorescence Staining and Automated Fluorescence Microscopy To establish and validate the immunofluorescence single cell AR signature, LNCaP cells were cultured in media containing 10% charcoal-stripped serum for 3 days followed by treatment with 1 nM R1881 or 10 μM bicalutamide for 24 hours. […] An automated upright fluorescence microscopy scanning system (BioView) fitted with a precision motorized stage and xenon arc lamp (Lumen 2000, Prior Scientific) was used to comprehensively image each CTC-chip under 10× magnification in seven z-planes. Due to inherent auto fluorescence of biological samples that can interfere with the specificity of stains in the green spectra, the negative control marker, CD45, was paired with the Alexa Fluor 488 secondary antibody. […]

[2] = system: CTCs from patients with CRPC; test: AR signaling phenotypes in CTCs from CRPC patients before and after second line hormonal therapy (HBCTC-Chip); type: in vivo, human; conditions: for Effect of second line hormonal treatment on CTC numbers and AR phenotypes: CRPC patients, ketoconazole N=1, bicalutamide N=2, abiraterone acetate N=13
Method: as §1
HBCTC-Chip Blood Processing All specimens were collected into Vacutainer (Becton-Dickson) tubes containing the anticoagulant EDTA and were processed through the ^HBCTC-Chip within 6 hours of blood draw. Samples were run on the previously described microfluidic processing machine (Stott S L, et al. Proc Natl Acad Sci USA 2010; 107: 18392-7). Briefly, a 5 mL aliquot of blood was placed in an airtight conical tube on a rocker assembly, and 2-4 mL of blood were pneumatically driven through the chip at a flow rate of 1-1.5 mL/hour. Following processing, the ^HBCTC-Chip was flushed with 2.5 mL of PBS at 2.5 mL/hour to remove nonspecifically bound cells. Isolated CTCs were then subjected to immunofluorescence staining, as described below.
Immunofluorescence Staining and Automated Fluorescence Microscopy To establish and validate the immunofluorescence single cell AR signature, LNCaP cells were cultured in media containing 10% charcoal-stripped serum for 3 days followed by treatment with 1 nM R1881 or 10 μM bicalutamide for 24 hours. Once the assays were validated in cultured cells, they were applied to cells spiked into whole blood and isolated on the CTC-Chip, to healthy donor blood samples to establish the signal intensity threshold for detection, and ultimately on primary patient samples processed through the Chip. Cells captured on the ^HBCTC-chip were fixed with 4% formaldehyde and permeabilized with 1% NP-40 in PBS. Immunofluorescence staining was performed using a rabbit polyclonal anti-PSA antibody (DAKO), a mouse monoclonal IgG1 anti-PSMA antibody (J591; N. Bander), and a mouse monoclonal IgG2a anti-CD45 antibody (Abcam), followed by appropriately matched secondary antibodies conjugated with DyLight 649 (Jackson ImmunoResearch), Alexa Fluor 555 (Invitrogen), and Alexa Fluor 488 (Invitrogen). Nuclei were stained with DAPI. An automated upright fluorescence microscopy scanning system (BioView) fitted with a precision motorized stage and xenon arc lamp (Lumen 2000, Prior Scientific) was used to comprehensively image each CTC-chip under 10× magnification in seven z-planes. Due to inherent auto fluorescence of biological samples that can interfere with the specificity of stains in the green spectra, the negative control marker, CD45, was paired with the Alexa Fluor 488 secondary antibody. This choice reduced the sensitivity of the staining assay (potentially more false negatives), but lessened the risk of false positives through natural autofluorescence. Conversely, PSA, the highest affinity antibody tested (and subsequently strongest fluorescent signal) was placed in the Cy5 channel, where the quantum efficiency of traditional monochrome CCD sensors is reduced. To successfully achieve distinct, non-overlapping fluorescent signals in four colors while maximizing the fluorescent intensity output, modified Magnetron sputter-coated filter sets were selected for the Cy3 and Cy5 spectra (Chroma). Additional filter sets for the DAPI and FITC channel were used and exposure times were optimized. All samples were subsequently imaged at predetermined exposure times. […]

[3] = system: metastatic CRPC; conditions: men with metastatic CRPC who have previously received chemotherapy; cited from earlier work
[4] = system: LNCaP cells; test: Multiparameter single cell immunofluorescence assay for AR signaling (PSA/PSMA) in LNCaP cells; type: cell-based, human; conditions: androgen-starved LNCaP cells (3 days 10% charcoal-stripped serum) treated with 1 nM R1881
Source text: To achieve multiparameter single cell analysis of AR activity, an automated fluorescence microscopy scanning platform was adapted to distinctly and specifically measure four fluorescent emission spectra simultaneously. Secondary fluorophores and optical band pass filters were selected to avoid “cross-talk” between the multiple fluorescent signals that are closely located on the electromagnetic spectrum, while maximizing signal intensity. The disclosed assay for quantitative measurement of signal intensity profiles for cells stained with antibodies against PSA and PSMA was developed using a model cell system (LNCaP). […]
as §2

CCNC(=O)[C@@H]1CCCN1C(=O)[C@H](CCCNC(=N)N)NC(=O)[C@H](CC(C)C)NC(=O)[C@@H](CC(C)C)NC(=O)[C@H](Cc1ccc(O)cc1)NC(=O)[C@H](CO)NC(=O)[C@H](Cc1c[nH]c2ccccc12)NC(=O)[C@H](Cc1c[nH]cn1)NC(=O)[C@@H]1CCC(=O)N1 [leuprolide]
Change of CTC AR signaling phenotype after ADT [1]: transformation of CTCs from the “AR-on” (PSA+/PSMA−) phenotype to the “AR-off” (PSA−/PSMA+) phenotype
Change of CTC AR signaling phenotype after ADT ([1]; listed as ADT): transformation of the majority of CTCs from the “AR-on” to the “AR-off” phenotype within one month
Presence of CTCs after initiation of ADT ([1]; treatment-naive metastatic prostate cancer patients with detectable CTCs): complete disappearance of CTCs by 3 months

CC(=O)O[C@H]1CC[C@@]2(C)C(=CC[C@@H]3[C@@H]2CC[C@]2(C)C(c4cccnc4)=CC[C@@H]32)C1 [abiraterone acetate]
CRPC patients with a stable percentage of AR-on CTCs after therapy ([2]; 6 of 13 patients): 46%
Effect of second line hormonal treatment on CTC numbers and AR phenotypes [2]: varying effects on CTC numbers and AR phenotypes
Change in proportion of PSA+/PSMA− AR-on CTCs in an individual CRPC patient ([2]; single patients, after initiation of therapy (FIG. 4A, FIG. 4C)): a decrease in the proportion of PSA+/PSMA− “AR-on” CTCs; also recorded: Increase in the proportion of PSA+/PSMA− “AR-on” CTCs
CRPC patients with ≥50% decline in the percentage of AR-on (PSA+/PSMA−) CTCs ([2]; within 2-5 weeks of therapy, 4 of 13 patients): 31%
CRPC patients with ≥50% increase in the percentage of AR-on CTCs ([2]; within the first 2-5 weeks of therapy, 3 of 13 patients): 23%
Overall survival [3]: increases overall survival

CC(=O)N1CCN(c2ccc(OCC3COC(Cn4ccnc4)(c4ccc(Cl)cc4Cl)O3)cc2)CC1 (centres unmarked) [ketoconazole]
Effect of second line hormonal treatment on CTC numbers and AR phenotypes [2]: varying effects on CTC numbers and AR phenotypes

C[C@]1(O)CC[C@H]2[C@@H]3CCC4=CC(=O)CCC4=C3C=C[C@@]21C [R1881]
AR signaling phenotype (PSA/PSMA signal intensity profile) over time [4]: time-dependent progression from an initial “AR-off” (PSA−/PSMA+) to an intermediate “AR-mixed” (PSA+/PSMA+) phenotype, and finally to an “AR-on” (PSA+/PSMA−) pattern

From patent US11079383B2, “Diagnosis and monitoring treatment of prostate cancer” (THE GENERAL HOSPITAL CORPORATION, priority 2012, dated 2021)
